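Dose response: 5 concentrations. Exposure: 48 h. Format: 96-well plates. Endpoint: linear interpolation; highest concentration if not reached. Here, GI50 denotes the concentration required for 50% inhibition of growth. At the TGI there is no net growth.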
Tests used:
Experiment in all cases: NCI-60 cell line screen, 48 h
IGROV1 ovarian = system: IGROV1 ovarian
LOX IMVI melanoma = system: LOX IMVI melanoma
BT-549 breast = system: BT-549 breast
ACHN renal = system: ACHN renal
KM12 colon = system: KM12 colon
DU-145 prostate = system: DU-145 prostate
OVCAR-5 ovarian = system: OVCAR-5 ovarian
MALME-3M melanoma = system: MALME-3M melanoma
SK-MEL-2 melanoma = system: SK-MEL-2 melanoma
UACC-257 melanoma = system: UACC-257 melanoma
MCF7 breast = system: MCF7 breast
M14 melanoma = system: M14 melanoma
RXF 393 renal = system: RXF 393 renal
SF-295 CNS = system: SF-295 CNS
HOP-92 NSCLC = system: HOP-92 NSCLC
PC-3 prostate = system: PC-3 prostate
MDA-MB-435 = system: MDA-MB-435
UACC-62 melanoma = system: UACC-62 melanoma
SK-OV-3 ovarian = system: SK-OV-3 ovarian
TK-10 renal = system: TK-10 renal
NCI-H522 lung = system: NCI-H522 lung
U251 CNS = system: U251 CNS
SNB-19 CNS = system: SNB-19 CNS
A549 NSCLC = system: A549 NSCLC
COLO 205 colon = system: COLO 205 colon
HCT-15 colon = system: HCT-15 colon
T-47D breast = system: T-47D breast
HOP-62 NSCLC = system: HOP-62 NSCLC
MDA-MB-468 breast = system: MDA-MB-468 breast
SR leukemia = system: SR leukemia
HCC-2998 colon = system: HCC-2998 colon
NCI-H23 lung = system: NCI-H23 lung
NCI-H460 lung = system: NCI-H460 lung
786-0 renal = system: 786-0 renal
UO-31 renal = system: UO-31 renal
CCRF-CEM leukemia = system: CCRF-CEM leukemia
SF-268 CNS = system: SF-268 CNS
K-562 leukemia = system: K-562 leukemia
SN12C renal = system: SN12C renal
MDA-MB-231 breast = system: MDA-MB-231 breast
OVCAR-4 ovarian = system: OVCAR-4 ovarian
SW-620 colon = system: SW-620 colon
OVCAR-8 ovarian = system: OVCAR-8 ovarian
HL-60(TB) leukemia = system: HL-60(TB) leukemia
NCI/ADR-RES ovarian = system: NCI/ADR-RES ovarian
EKVX NSCLC = system: EKVX NSCLC
HS 578T breast = system: HS 578T breast
SNB-75 CNS = system: SNB-75 CNS
CAKI-1 renal = system: CAKI-1 renal
SK-MEL-5 melanoma = system: SK-MEL-5 melanoma
OVCAR-3 ovarian = system: OVCAR-3 ovarian
RPMI-8226 leukemia = system: RPMI-8226 leukemia
NCI-H226 lung = system: NCI-H226 lung
SK-MEL-28 melanoma = system: SK-MEL-28 melanoma
HCT-116 colon = system: HCT-116 colon
SF-539 CNS = system: SF-539 CNS
A498 renal = system: A498 renal
MOLT-4 leukemia = system: MOLT-4 leukemia
HT29 colon = system: HT29 colon

C#CCN(C)CCCOc1ccc(N(C)C(=O)c2cc(C(C)C)c(O)cc2O)cc1Cl
GI50 (IGROV1 ovarian): 172 nM
TGI (IGROV1 ovarian): 14700 nM
GI50 (LOX IMVI melanoma): 129 nM
TGI (LOX IMVI melanoma): 303 nM
GI50 (BT-549 breast): 1090 nM
TGI (BT-549 breast): 15400 nM
GI50 (ACHN renal): 96.3 nM
TGI (ACHN renal): 13500 nM
GI50 (KM12 colon): 105 nM
TGI (KM12 colon): 10900 nM
GI50 (DU-145 prostate): 59.2 nM
TGI (DU-145 prostate): 18200 nM
GI50 (OVCAR-5 ovarian): 477 nM
TGI (OVCAR-5 ovarian): 16000 nM
GI50 (MALME-3M melanoma): 195 nM
TGI (MALME-3M melanoma): 2230 nM
GI50 (SK-MEL-2 melanoma): 1720 nM
TGI (SK-MEL-2 melanoma): 18600 nM
GI50 (UACC-257 melanoma): 521 nM
TGI (UACC-257 melanoma): 13800 nM
GI50 (MCF7 breast): 52.2 nM
TGI (MCF7 breast): 15400 nM
GI50 (M14 melanoma): 406 nM
TGI (M14 melanoma): 13800 nM
GI50 (RXF 393 renal): 685 nM
TGI (RXF 393 renal): 13800 nM
GI50 (SF-295 CNS): 348 nM
TGI (SF-295 CNS): 12700 nM
GI50 (HOP-92 NSCLC): 328 nM
TGI (HOP-92 NSCLC): 3590 nM
GI50 (PC-3 prostate): 161 nM
TGI (PC-3 prostate): 16000 nM
GI50 (MDA-MB-435): 133 nM
TGI (MDA-MB-435): 12400 nM
GI50 (UACC-62 melanoma): 168 nM
TGI (UACC-62 melanoma): 913 nM
GI50 (SK-OV-3 ovarian): 53.4 nM
TGI (SK-OV-3 ovarian): 12900 nM
GI50 (TK-10 renal): 323 nM
TGI (TK-10 renal): 16800 nM
GI50 (NCI-H522 lung): 165 nM
TGI (NCI-H522 lung): 14100 nM
GI50 (U251 CNS): 283 nM
TGI (U251 CNS): 16000 nM
GI50 (SNB-19 CNS): 435 nM
TGI (SNB-19 CNS): 15400 nM
GI50 (A549 NSCLC): 188 nM
TGI (A549 NSCLC): 15400 nM
GI50 (COLO 205 colon): 2830 nM
TGI (COLO 205 colon): 12500 nM
GI50 (HCT-15 colon): 82.7 nM
TGI (HCT-15 colon): 12700 nM
GI50 (T-47D breast): 85.3 nM
TGI (T-47D breast): 13500 nM
GI50 (HOP-62 NSCLC): 249 nM
TGI (HOP-62 NSCLC): 19600 nM
GI50 (MDA-MB-468 breast): 96.2 nM
TGI (MDA-MB-468 breast): 462 nM
GI50 (SR leukemia): 40.9 nM
TGI (SR leukemia): 19400 nM
GI50 (HCC-2998 colon): 224 nM
TGI (HCC-2998 colon): 2040 nM
GI50 (NCI-H23 lung): 298 nM
TGI (NCI-H23 lung): 15000 nM
GI50 (NCI-H460 lung): 67.9 nM
TGI (NCI-H460 lung): 10900 nM
GI50 (786-0 renal): 2600 nM
TGI (786-0 renal): 18700 nM
GI50 (UO-31 renal): 148 nM
TGI (UO-31 renal): 14200 nM
GI50 (CCRF-CEM leukemia): 62.5 nM
TGI (CCRF-CEM leukemia): 13300 nM
GI50 (SF-268 CNS): 1320 nM
TGI (SF-268 CNS): 25900 nM
GI50 (K-562 leukemia): 78.8 nM
TGI (K-562 leukemia): 19400 nM
GI50 (SN12C renal): 92.5 nM
TGI (SN12C renal): 14200 nM
GI50 (MDA-MB-231 breast): 213 nM
TGI (MDA-MB-231 breast): 10900 nM
GI50 (OVCAR-4 ovarian): 2010 nM
TGI (OVCAR-4 ovarian): 22200 nM
GI50 (SW-620 colon): 102 nM
TGI (SW-620 colon): 13900 nM
GI50 (OVCAR-8 ovarian): 202 nM
TGI (OVCAR-8 ovarian): 21000 nM
GI50 (HL-60(TB) leukemia): 53.3 nM
TGI (HL-60(TB) leukemia): 9100 nM
GI50 (NCI/ADR-RES ovarian): 305 nM
TGI (NCI/ADR-RES ovarian): 8930 nM
GI50 (EKVX NSCLC): 526 nM
TGI (EKVX NSCLC): 12700 nM
GI50 (HS 578T breast): 1330 nM
TGI (HS 578T breast): 27100 nM
GI50 (SNB-75 CNS): 977 nM
TGI (SNB-75 CNS): 17800 nM
GI50 (CAKI-1 renal): 325 nM
TGI (CAKI-1 renal): 14900 nM
GI50 (SK-MEL-5 melanoma): 357 nM
TGI (SK-MEL-5 melanoma): 2020 nM
GI50 (OVCAR-3 ovarian): 509 nM
TGI (OVCAR-3 ovarian): 16800 nM
GI50 (RPMI-8226 leukemia): 266 nM
TGI (RPMI-8226 leukemia): 20500 nM
GI50 (NCI-H226 lung): 557 nM
TGI (NCI-H226 lung): 19800 nM
GI50 (SK-MEL-28 melanoma): 386 nM
TGI (SK-MEL-28 melanoma): 13300 nM
GI50 (HCT-116 colon): 88.9 nM
TGI (HCT-116 colon): 13300 nM
GI50 (SF-539 CNS): 325 nM
TGI (SF-539 CNS): 12900 nM
GI50 (A498 renal): 642 nM
TGI (A498 renal): 16500 nM
GI50 (MOLT-4 leukemia): 101 nM
TGI (MOLT-4 leukemia): 12500 nM
GI50 (HT29 colon): 3270 nM
TGI (HT29 colon): 13900 nM

Source: PubChem BioAssay (NCI)
